One test concerns live Jurkat cells. Description: DIC microscopy of intracellular particles motion (ASD/PSD and MSD analysis). The class given is cell-based, human. The following applies: 10 μM blebbistatin treatment, compared with ATP depletion. As for the experimental part:
In the following experimental results of the spectral analysis of position fluctuations in time of intracellular particles in Jurkat T lymphocytes, each cell before and after ATP depletion, are presented. […] Depletion of cellular ATP was induced by 30 min incubation with 0.2 μM of the mitochondrial complex 1 inhibitor Rotenone (Sigma-Aldrich, St. Louis, MO, United States) together with 10 mM glycolysis inhibitor 2-deoxy-D-glucose (Sigma-Aldrich, St. Louis, MO, United States). For the visualization and monitoring of intracellular objects, including vesicles, Differential Interference Contrast (DIC) microscopy was employed. Reference is made to FIG. 6a where DIC image of a representative live Jurkat cell is shown. […]
After thresholding the objects, the x and y positions of each identified particle at each point of time (determined by the MultiTracker plug in) were recorded (FIGS. 6c-6e). […] Then, the DFT of these time dependent position changes were calculated for each spatial dimension. The average DFT amplitudes of all moving particles in each cell under each condition were determined for the x and y spatial dimensions. […]
From the position results of the detected intracellular particles, the MSD values for time-lags from 0.3 to 3 s (with a 0.3 s gradual increase) were calculated. The average MSD values were determined for that series of time-lags for each cell before and after ATP depletion. […]

For test [1], the system named is primary lymphocytes (benign), CD8 (malignant) and Jurkat (malignant) cells. Description: TIRF microscopy of cell membrane fluctuations in a model of the immune synapse. The class given is cell-based, human. To be noted: frequency ranges 0-5 Hz and 10-25 Hz, before and after Mibefradil treatment. From the text: So far, intracellular fluctuations as captured by the motion of intracellular particles or by the cell boundaries were described. The fluctuations of the cell membrane may have an impact on the formation and function of the immune synapse that forms between T cells and antigen presenting cells (APCs). To study such a possible impact, the inventors measured fluctuations of Jurkat cells at their interface with coverslips coated with αCD3ε antibodies. Such coverslips often serve as a model for the immune synapse, as the cells spread on the coverslips and get robustly activated. The membrane of the cells was stained with an αCD45 primary antibody, labeled with Alexa647 and imaged by time-lapse TIRF microscopy. […] The reflection light was detected using an avalanche photodiode (APD) with a band-pass filter of 650-720 nm. […] Fluorescence intensity of each pixel in each image was normalized by dividing its intensity with the average intensity of that time-dependent image. The temporal fluctuations of the normalized fluorescence intensities were analyzed by DFT for each pixel in a ROI. […] Live cells were measured without and after ATP depletion, while fixed cells served for control. […] The temporal fluctuations of the normalized fluorescence intensities were analyzed via DFT for each pixel in that ROI. […]

For test [2], the system named is surface of aggregation of cells. Description: Dynamic reflective laser speckled imaging of cell surface vibrations. It counts as cell-based. To be noted: before and after mibefradil treatment, 0-5 Hz range. From the text:
The inventors have used the above-described imaging system 120 (the experimental set up was built by modifying an inverted fluorescence microscope set up) to acquire the sequence of tissue's images-one such image is shown in FIG. 19A. The image data analysis described above were then used to determine cell vibrations at the surface of aggregation of cells before and after the augmentation of cell membrane vibrations using mibefradil. […] FIGS. 19C and 19D show power fit parameters for the ASD analysis results in the cells (shown in FIG. 19B) before and after mibefradil treatment: parameter b (FIG. 19C) and sum of amplitudes in the 0-5 Hz range (FIG. 19D). Multiple areas of cells (N=14) were measured and compared each before and after mibefradil treatment.

Structures are written as SMILES.

Turning to `Cc1ccc2c(c1)C(=O)C1(O)CCN(c3ccccc3)C1=N2` (stereo not drawn) [blebbistatin], the “effects on intracellular motion” value in the test with live Jurkat cells was “effects on intracellular motion of blebbistatin treatment and ATP depletion were similar”.

Take `COCC(=O)O[C@]1(CCN(C)CCCc2nc3ccccc3[nH]2)CCc2cc(F)ccc2[C@@H]1C(C)C` [Mibefradil]: the “cell membrane vibrations (average DFT amplitudes)” value in test [1] was “increases cell membrane vibrations in all cell types”. In addition, the “mechanical vibrations of the cells' membrane” value in test [2] was “an increase in mechanical vibrations of the cells' membrane”.

The record behind these values is patent US20260253225A1, “OPTICAL SYSTEM AND METHOD FOR MONITORING ABNORMALITY ASSOCIATED PARAMETERS IN CELL-CONTAINING SAMPLES” (priority 2023, published 2026).
